Reference: patent US10111433B2 (priority 2014, dated 2018)
Where two headings read alike, the source gives them in different places.

Columns and labels:
Phytophthora capsici = assay: Activity against Phytophthora capsici, growth inhibition in nutrient broth (microtiter plate); assay type: cell-based
Procedure: Conidia of the fungus from cryogenic storage are directly mixed into nutrient broth (PDB potato dextrose broth). After placing a (DMSO) solution of test compound into a microtiter plate (96-well format), the nutrient broth containing the fungal spores is added. […] Table B4 to B21 gives the mean percent control relative to untreated.

Phytophthora infestans [1] = assay type: in vivo; conditions: Table B3; Chlorothalonil 1000 gai/ha; leaf area, four days after final application
Phytophthora infestans [2] = assay type: in vivo
Plasmopara viticola = assay: Field activity against Plasmopara viticola on grapevine; assay type: in vivo; conditions: Table B2; Mandipropamid 93.75 gai/ha; bunches, ten days after sixth application
Excerpt: Merlot grapevines were cultivated in rows with 1 m between plants within the row, and 2 m spaces between rows. Treatment plots were defined with an 8 m^2 vertical area. The trial consisted of three replicates of the treatment list, with the positions of each treatment plot randomised within the replicate.
Test compounds were formulated and applied to the relevant treatment plots, using a backpack sprayer with a flat fan nozzle. The first application was made when the majority of plants were at growth stage BBCH 15 and following applications at 10-14 day intervals through to growth stage BBCH 79.
The first symptoms of the target pathogen Plasmopara viticola were observed between the second and third applications. Plants outside the trial area were inoculated to increase the disease pressure, but infection processes within the trial plots were natural. […]
Ten days after the sixth application, at growth stage BBCH 79, the fruit was assessed for infection by Plasmopara viticola. 50 bunches per plot were assessed, the scores given in table B2 are percent disease control relative to untreated, based on the mean percentage of bunches showing symptoms of infection across all three replicates of a treatment.

[3] = Table B20, Iprovalicarb 0.6250 ppm, no A-1.2 rate printed in the row

C[C@@]1(c2ccc(Oc3ccccc3)cc2)OC(=O)N(Nc2ccccc2)C1=O (racemic) [Famoxadone]
inhibition of growth at 0.1563 ppm (Phytophthora capsici; Phytophthora capsici, Table B19, Famoxadone 0.1563 ppm, read-out: % disease control): 16%
inhibition of growth at 0.3125 ppm (Phytophthora capsici; Phytophthora capsici, Table B19, Famoxadone 0.3125 ppm, read-out: % disease control): 16%
inhibition of growth at 0.625 ppm (Phytophthora capsici; Phytophthora capsici, Table B19, Famoxadone 0.6250 ppm, read-out: % disease control): 16%
inhibition of growth at 1.25 ppm (Phytophthora capsici; Phytophthora capsici, Table B19, Famoxadone 1.2500 ppm, read-out: % disease control): 16%
inhibition of growth at 2.5 ppm (Phytophthora capsici; Phytophthora capsici, Table B19, Famoxadone 2.5000 ppm, read-out: % disease control): 16%
inhibition of growth at 5 ppm (Phytophthora capsici; Phytophthora capsici, Table B19, Famoxadone 5.0000 ppm, read-out: % disease control): 25%

CCCCCCCCc1c(CC)nc2ncnn2c1N [Ametoctradin]
% disease control (Phytophthora capsici; Table B17, Ametoctradin 0.0063 ppm): 8%
% disease control (Phytophthora capsici; Table B17, Ametoctradin 0.0125 ppm): 8%
% disease control (Phytophthora capsici; Table B17, Ametoctradin 0.0250 ppm): 13%
% disease control (Phytophthora capsici; Table B17, Ametoctradin 0.0500 ppm): 30%

Cc1c(Br)c2ccc(F)cc2n1S(=O)(=O)c1ncn(S(=O)(=O)N(C)C)n1 [Amisulbrom]
% disease control (Phytophthora capsici; Table B16, Amisulbrom 0.0063 ppm): 5%
% disease control (Phytophthora capsici; Table B16, Amisulbrom 0.0125 ppm): 6%
% disease control (Phytophthora capsici; Table B16, Amisulbrom 0.0500 ppm): 24%
% disease control (Phytophthora capsici; Table B16, Amisulbrom 0.1000 ppm): 35%

CO/C=C(/C(=O)OC)c1ccccc1Oc1cc(Oc2ccccc2C#N)ncn1 [Azoxystrobin]
% disease control (Phytophthora capsici; Table B7, Azoxystrobin 0.0313 ppm): 23%
% disease control (Phytophthora capsici; Table B7, Azoxystrobin 0.0625 ppm): 23%
% disease control (Phytophthora capsici; Table B7, Azoxystrobin 0.1250 ppm): 62%

N#Cc1c(Cl)c(Cl)c(Cl)c(C#N)c1Cl [Chlorothalonil]
inhibition of growth at 0.0781 ppm (Phytophthora capsici; Phytophthora capsici, Table B5, Chlorothalonil 0.0781 ppm, read-out: % disease control): 24%
inhibition of growth at 0.1563 ppm (Phytophthora capsici; Phytophthora capsici, Table B5, Chlorothalonil 0.1563 ppm, read-out: % disease control): 24%
inhibition of growth at 0.3125 ppm (Phytophthora capsici; Phytophthora capsici, Table B5, Chlorothalonil 0.3125 ppm, read-out: % disease control): 23%
inhibition of growth at 0.625 ppm (Phytophthora capsici; Phytophthora capsici, Table B5, Chlorothalonil 0.6250 ppm, read-out: % disease control): 64%
% disease control relative to untreated (Phytophthora infestans [1]): 4.3%
% disease control (Phytophthora infestans [2]; Table B1.3, Chlorothalonil 60 ppm): 6%

CCNC(=O)NC(=O)/C(C#N)=N/OC [Cymoxanil]
inhibition of growth at 0.0625 ppm (Phytophthora capsici; Phytophthora capsici, Table B13, Cymoxanil 0.0625 ppm, read-out: % disease control): 0%
inhibition of growth at 0.125 ppm (Phytophthora capsici; Phytophthora capsici, Table B13, Cymoxanil 0.1250 ppm, read-out: % disease control): 10%
inhibition of growth at 0.25 ppm (Phytophthora capsici; Phytophthora capsici, Table B13, Cymoxanil 0.2500 ppm, read-out: % disease control): 0%
inhibition of growth at 0.5 ppm (Phytophthora capsici; Phytophthora capsici, Table B13, Cymoxanil 0.5000 ppm, read-out: % disease control): 11%
inhibition of growth at 1 ppm (Phytophthora capsici; Phytophthora capsici, Table B13, Cymoxanil 1.0000 ppm, read-out: % disease control): 8%
inhibition of growth at 2 ppm (Phytophthora capsici; Phytophthora capsici, Table B13, Cymoxanil 2.0000 ppm, read-out: % disease control): 36%

COc1ccc(C(=CC(=O)N2CCOCC2)c2ccc(Cl)cc2)cc1OC [Dimetomorph]
inhibition of growth at 0.0031 ppm (Phytophthora capsici; Phytophthora capsici, Table B10, Dimetomorph 0.0031 ppm, read-out: % disease control): 0%
inhibition of growth at 0.0063 ppm (Phytophthora capsici; Phytophthora capsici, Table B10, Dimetomorph 0.0063 ppm, read-out: % disease control): 14%
inhibition of growth at 0.0125 ppm (Phytophthora capsici; Phytophthora capsici, Table B10, Dimetomorph 0.0125 ppm, read-out: % disease control): 0%
inhibition of growth at 0.1 ppm (Phytophthora capsici; Phytophthora capsici, Table B10, Dimetomorph 0.1000 ppm, read-out: % disease control): 28%

N#Cc1sc2c(=O)c3ccccc3c(=O)c=2sc1C#N [Dithianon]
inhibition of growth at 0.125 ppm (Phytophthora capsici; Phytophthora capsici, Table B6, Dithianon 0.1250 ppm, read-out: % disease control): 0%
inhibition of growth at 0.25 ppm (Phytophthora capsici; Phytophthora capsici, Table B6, Dithianon 0.2500 ppm, read-out: % disease control): 7%
inhibition of growth at 0.5 ppm (Phytophthora capsici; Phytophthora capsici, Table B6, Dithianon 0.5000 ppm, read-out: % disease control): 8%
inhibition of growth at 1 ppm (Phytophthora capsici; Phytophthora capsici, Table B6, Dithianon 1.0000 ppm, read-out: % disease control): 25%

CSC1=N[C@@](C)(c2ccccc2)C(=O)N1Nc1ccccc1 [Fenamidone]
inhibition of growth at 0.0031 ppm (Phytophthora capsici; Phytophthora capsici, Table B18, Fenamidone 0.0031 ppm, read-out: % disease control): 12%
inhibition of growth at 0.0063 ppm (Phytophthora capsici; Phytophthora capsici, Table B18, Fenamidone 0.0063 ppm, read-out: % disease control): 4%
inhibition of growth at 0.0125 ppm (Phytophthora capsici; Phytophthora capsici, Table B18, Fenamidone 0.0125 ppm, read-out: % disease control): 41%
inhibition of growth at 0.025 ppm (Phytophthora capsici; Phytophthora capsici, Table B18, Fenamidone 0.0250 ppm, read-out: % disease control): 54%

O=[N+]([O-])c1cc(C(F)(F)F)c(Cl)c([N+](=O)[O-])c1Nc1ncc(C(F)(F)F)cc1Cl [Fluazinam]
inhibition of growth at 0.0625 ppm (Phytophthora capsici; Phytophthora capsici, Table B11, Fluazinam 0.0625 ppm, read-out: % disease control): 4%
inhibition of growth at 0.125 ppm (Phytophthora capsici; Phytophthora capsici, Table B11, Fluazinam 0.1250 ppm, read-out: % disease control): 10%
inhibition of growth at 0.25 ppm (Phytophthora capsici; Phytophthora capsici, Table B11, Fluazinam 0.2500 ppm, read-out: % disease control): 0%
inhibition of growth at 0.5 ppm (Phytophthora capsici; Phytophthora capsici, Table B11, Fluazinam 0.5000 ppm, read-out: % disease control): 14%

O=C(NCc1ncc(C(F)(F)F)cc1Cl)c1c(Cl)cccc1Cl [Fluopicolid]
% disease control (Phytophthora capsici; Table B15, Fluopicolid 0.0625 ppm): 6%
% disease control (Phytophthora capsici; Table B15, Fluopicolid 0.1250 ppm): 59%
% disease control (Phytophthora capsici; Table B15, Fluopicolid 0.2500 ppm): 69%
% disease control (Phytophthora capsici; Table B15, Fluopicolid 0.5000 ppm): 79%

O=C1c2ccccc2C(=O)N1SC(Cl)(Cl)Cl [Folpet]
inhibition of growth at 0.0313 ppm (Phytophthora capsici; Phytophthora capsici, Table B12, Folpet 0.0313 ppm, read-out: % disease control): 17%
inhibition of growth at 0.0625 ppm (Phytophthora capsici; Phytophthora capsici, Table B12, Folpet 0.0625 ppm, read-out: % disease control): 11%
inhibition of growth at 0.125 ppm (Phytophthora capsici; Phytophthora capsici, Table B12, Folpet 0.1250 ppm, read-out: % disease control): 19%
inhibition of growth at 0.25 ppm (Phytophthora capsici; Phytophthora capsici, Table B12, Folpet 0.2500 ppm, read-out: % disease control): 19%
% disease control (Phytophthora infestans [2]; Table B1.2, Folpet 20 ppm): 0%
% disease control (Phytophthora infestans [2]; Table B1.2, Folpet 60 ppm): 33%

CCO[PH](=O)[O-].CCO[PH](=O)[O-].CCO[PH](=O)[O-].[Al+3] [Fosethyl-Al]
% disease control (Phytophthora capsici; Table B21, Fosethyl-Al 0.3125 ppm): 8%
% disease control (Phytophthora capsici; Table B21, Fosethyl-Al 0.6250 ppm): 14%
% disease control (Phytophthora capsici; Table B21, Fosethyl-Al 1.2500 ppm): 14%

Cc1ccc(C(C)NC(=O)[C@@H](NC(=O)OC(C)C)C(C)C)cc1 (stereo partly shown) [Iprovalicarb]
% disease control (Phytophthora capsici; [3]): 91%
Expected action (Colby) (Phytophthora capsici; [3]): 66%
% disease control (Phytophthora capsici; Table B20, Iprovalicarb 1.2500 ppm): 18%
% disease control (Phytophthora capsici; Table B20, Iprovalicarb 2.5000 ppm): 0%

C#CCOc1ccc(CCNC(=O)C(OCC#C)c2ccc(Cl)cc2)cc1OC (stereo not shown) [Mandipropamid]
% disease control relative to untreated (Plasmopara viticola): 17.3%
% disease control (Phytophthora capsici; Table B9, Mandipropamid 0.0003 ppm): 16%
% disease control (Phytophthora capsici; Table B9, Mandipropamid 0.0006 ppm): 0%
% disease control (Phytophthora capsici; Table B9, Mandipropamid 0.0012 ppm): 0%
% disease control (Phytophthora capsici; Table B9, Mandipropamid 0.0025 ppm): 17%
% disease control (Phytophthora capsici; Table B9, Mandipropamid 0.0050 ppm): 13%
% disease control (Phytophthora capsici; Table B9, Mandipropamid 0.0100 ppm): 15%
% disease control (Phytophthora infestans [2]; Table B1.1, Mandipropamid 0.06 ppm): 0%
% disease control (Phytophthora infestans [2]; Table B1.1, Mandipropamid 0.2 ppm): 0%
% disease control (Phytophthora infestans [2]; Table B1.1, Mandipropamid 0.6 ppm): 3%

COCC(=O)N(c1c(C)cccc1C)[C@H](C)C(=O)OC [Mefenoxam]
% disease control (Phytophthora capsici; Table B8, Mefenoxam 0.0031 ppm): 0%
% disease control (Phytophthora capsici; Table B8, Mefenoxam 0.0063 ppm): 13%
% disease control (Phytophthora capsici; Table B8, Mefenoxam 0.0125 ppm): 13%
% disease control (Phytophthora capsici; Table B8, Mefenoxam 0.0250 ppm): 28%
% disease control (Phytophthora capsici; Table B8, Mefenoxam 0.0500 ppm): 42%

CCC(C)(NC(=O)c1cc(Cl)c(C)c(Cl)c1)C(=O)CCl (stereo not shown) [Zoxamid]
inhibition of growth at 0.0063 ppm (Phytophthora capsici; Phytophthora capsici, Table B14, Zoxamid 0.0063 ppm, read-out: % disease control): 19%
inhibition of growth at 0.0125 ppm (Phytophthora capsici; Phytophthora capsici, Table B14, Zoxamid 0.0125 ppm, read-out: % disease control): 40%
inhibition of growth at 0.025 ppm (Phytophthora capsici; Phytophthora capsici, Table B14, Zoxamid 0.0250 ppm, read-out: % disease control): 48%
inhibition of growth at 0.05 ppm (Phytophthora capsici; Phytophthora capsici, Table B14, Zoxamid 0.0500 ppm, read-out: % disease control): 65%

Mancozeb
% disease control (Phytophthora capsici; Table B4, Mancozeb 0.3125 ppm): 3%
% disease control (Phytophthora capsici; Table B4, Mancozeb 0.6250 ppm): 1%
% disease control (Phytophthora capsici; Table B4, Mancozeb 1.2500 ppm): 0%
% disease control (Phytophthora capsici; Table B4, Mancozeb 2.5000 ppm): 0%
% disease control (Phytophthora capsici; Table B4, Mancozeb 5.0000 ppm): 1%
% disease control (Phytophthora capsici; Table B4, Mancozeb 10.0000 ppm): 1%
% disease control (Phytophthora capsici; Table B4, Mancozeb 20.0000 ppm): 0%
